Assay results: US20190183811A1, “COMPOSITION CONTAINING SQUALENE FOR IMPROVING MUSCLE FUNCTION AND PREVENTING MUSCLE DAMAGE” (AAT COSTECH CO., LTD., priority 2016, published 2019)

Legend:
[1] = system: atrogin-1 mRNA in C2C12 muscle cells; experiment: RT-PCR of atrogin-1 mRNA expression in C2C12 muscle cells treated with squalene; type: cell-based; settings: cultured 12 hours, FIG. 3
Experimental: (§1) Thus, in order to identify whether the produced muscle proteins can also be protected against degradation through degradation-inhibitory activity of squalene, mRNA transcriptional expression levels of atrogin-1 and MuRF1 which are muscle-degrading proteins were checked.
(§2) Specifically, C2C12 muscle cells were treated with squalene and cultured for 12 hours while inducing differentiation, by performing the same method as in the above <Example 1>. The resulting cells were obtained. Total RNA was isolated from the obtained cells using a TRIzol reagent (Invitrogen, Carlsbad, Calif., USA). The isolated total RNA was quantitated using NanoDrop 1000 (Thermo Fisher Scientific Inc., Waltham, Mass., USA). The quantified 16 μL of RNA was synthesized into cDNA using Reverse Transcriptase Premix (ELPISBIOTECH. INC) and a PCR machine (Gene Amp PCR System 2700; Applied Biosystems, Foster City, Calif., USA) under a condition at 42° C. for 55 minutes and 70° C. for 15 minutes. 3 μL of cDNA out of the synthesized cDNA, specific primers (BIONEER CORPORATION, Daejeon, Korea) as shown in the following [Table 1], and a PCR premix (ELPISBIOTECH. INC) were mixed, and PCR was performed by repeating 30 cycles of 95° C. for 30 seconds, 60° C. for 1 minute, and 72° C. for 1 minute. […]

[2] = system: immobilized rats (muscle atrophy and muscle damage); experiment: Muscular strength (muscular strength meter) after hindlimb immobilization; type: in vivo, rats (C57BL/6J); settings: squalene 100 and 200 mg/kg/day oral for one week after one week immobilization; vs immobilized group, **P<0.01; FIG. 4
Experimental: (§3) Seven-week-old male rats (C57BL/6J; DBL Co., Ltd.) were purchased as experimental animals, and experiments were conducted. All animals were kept at the Yonsei Laboratory Animal Research Center (YLARC, Seoul, Korea), and an environment under which the animals were kept was maintained at a temperature of 23±2° C. and a relative humidity of 55±10%. Before starting experiments, a total of 28 rats were randomly assigned to 7 rats per group, and the groups were divided into a normal group, an immobilized group, 100 mg/kg/day of squalene-administered group (squalene 100-administered group), and 200 mg/kg/day of squalene-administered group (squalene 200-administered group). After one week of adaptation, anesthesia was induced by intraperitoneal injection of 325 mg/kg of tribromoethanol (Sigma-Aldrich). […] One week later, the staples fixed on the gastrocnemius muscle and the sole were removed and squalene was orally administered at a concentration of 100 mg/kg and 200 mg/kg on a daily basis for one week. The normal group and the immobilized group were orally administered saline instead of squalene. After the oral administration period was completed in the above <Example 4-1>, muscular strength of the rats was measured using a muscular strength meter (Columbus Instruments International, Columbus, Ohio, USA). All forelimbs and hindlimbs of the rat were grasped on a grid. […]

[3] = system: p-mTOR in C2C12 muscle cells; experiment: Western blot of phosphorylated mTOR (p-mTOR) in C2C12 muscle cells treated with squalene; type: cell-based; settings: FIG. 1
Experimental: In a case where mTOR protein is activated by phosphorylation, expression levels of major proteins in muscle cells which are expressed upon differentiation and are associated with muscle protein synthesis and muscle mass increase in a PI3K/Akt signaling pathway were checked. The obtained cells were lysed with an NP-40 buffer solution (ELPISBIOTECH. INC, Daejeon, Korea) containing a protease inhibitor cocktail (Sigma-Aldrich), and centrifuged at 13,000 rpm for 10 minutes to obtain a cell lysate which is a supernatant. A protein concentration in the supernatant was quantitated by Bradford. Then, a predetermined concentration of the proteins was heated for 5 minutes and separated by SDS-PAGE electrophoresis. The separated proteins were transferred to a nitrocellulose membrane. Then, a p-mTOR primary antibody (Cell Signaling Technology, Inc., Beverly, Mass., USA) was diluted with 2.5% bovine serum albumin (BSA; BioWORLD, Dublin, Ohio, USA) at a ratio of 1:1,000, and the resultant was allowed to react with the proteins, which had been transferred to the nitrocellulose membrane, at room temperature for 20 hours. […] Protein bands detected through antibody binding were developed using the ECL Western Blot Detection Reagent (Amersham, Tokyo, Japan), and the developed protein bands were identified using a G:BOX EF imaging system (Syngene, Cambridge, UK).

[4] = system: immobilized rats (muscle atrophy and muscle damage); experiment: Weight of tibialis anterior muscle of right hindlimb after immobilization; type: in vivo, rats (C57BL/6J); settings: muscle not damaged by stapler, squalene 100 and 200 mg/kg/day oral for one week, vs immobilized group, *P<0.05, FIG. 5
Experimental: as §3, with “measurement of muscular strength” for “oral administration period was completed”, “4-2> was completed, the experimental animals were anesthetized by intraperitoneal injection” for “4-1>, muscular strength”, “325 mg/kg of tribromoethanol (Sigma-Aldrich),” for “the rats was measured using a muscular strength meter (Columbus Instruments International, Columbus, Ohio, USA). All forelimbs”, “then sacrificed by cardiac puncture.” for “hindlimbs of the rat were grasped on a grid.”

[5] = system: immobilized rats (muscle atrophy and muscle damage); experiment: Weight of muscle physically directly damaged by the stapler (regeneration of damaged muscles); type: in vivo, rats (C57BL/6J); settings: right hindlimb, squalene 100 and 200 mg/kg/day oral for one week, vs immobilized group, **P<0.01, FIG. 7
Experimental: (§4) Seven-week-old male rats (C57BL/6J; DBL Co., Ltd.) were purchased as experimental animals, and experiments were conducted. All animals were kept at the Yonsei Laboratory Animal Research Center (YLARC, Seoul, Korea), and an environment under which the animals were kept was maintained at a temperature of 23±2° C. and a relative humidity of 55±10%. Before starting experiments, a total of 28 rats were randomly assigned to 7 rats per group, and the groups were divided into a normal group, an immobilized group, 100 mg/kg/day of squalene-administered group (squalene 100-administered group), and 200 mg/kg/day of squalene-administered group (squalene 200-administered group). After one week of adaptation, anesthesia was induced by intraperitoneal injection of 325 mg/kg of tribromoethanol (Sigma-Aldrich). […] One week later, the staples fixed on the gastrocnemius muscle and the sole were removed and squalene was orally administered at a concentration of 100 mg/kg and 200 mg/kg on a daily basis for one week. The normal group and the immobilized group were orally administered saline instead of squalene. In the rat from which the tibialis anterior muscle of the right hindlimb was extracted in the above <Example 4-3>, a tibialis anterior muscle of the right hind limb, which was physically directly damaged by the stapler, was extracted and weighed.

[6] = system: immobilized rats (muscle atrophy and muscle damage); experiment: Myofiber cross-sectional area in tibialis anterior muscle (H&E staining, Image J); type: in vivo, rats (C57BL/6J); settings: squalene 100 and 200 mg/kg/day oral for one week; vs immobilized group, **P<0.01; FIG. 6
Experimental: as §4, with “squalene. […]” for “squalene.”, “addition, myofibers were photographed and a cross-sectional area thereof was measured with an Image J program (National Institutes” for “the rat from which the tibialis anterior muscle”, “Health, Bethesda, […], USA).” for “the right hindlimb was extracted in the above <Example 4-3>, a tibialis anterior muscle of the right hind limb, which was physically directly damaged by the stapler, was extracted and weighed.”

[7] = system: MuRF1 mRNA in C2C12 muscle cells; experiment: RT-PCR of MuRF1 mRNA expression in C2C12 muscle cells treated with squalene; type: cell-based; settings: cultured 12 hours, FIG. 3
Experimental: as §1, §2

[8] = system: p-p70S6K in C2C12 muscle cells; experiment: Western blot of p-p70S6K protein in C2C12 muscle cells treated with squalene; type: cell-based; settings: FIG. 2
Experimental: Thus, in order to identify this fact in a more specific manner, a phosphorylation-induced activity level of p70S6K protein, which is known to be involved in an mRNA translation process in muscle cells, was checked, instead of an expression level of p-mTOR. Specifically, C2C12 muscle cells were treated with squalene and cultured while inducing differentiation, by performing the same method as in the above <Example 1>. The resulting cells were obtained and subjected to western blotting. A p-p70S6K antibody (Santa Cruz Biotechnology, Inc., Santa Cruz, Calif., USA) was used as a primary antibody for western blotting.

What does the source list for `CC(C)=CCC/C(C)=C/CC/C(C)=C/CC/C=C(\C)CC/C=C(\C)CCC=C(C)C` [squalene, (6E,10E,14E,18E)-2,6,10,15,19,23-hexamethyltetracosa-2,6,10,14,18,22-hexaene]?
mRNA expression level of atrogin-1 [1]: decreased; muscular strength [2]: restored in a concentration-dependent manner; expression level of phosphorylated mTOR (p-mTOR) [3]: increased; weight of the tibialis anterior muscle [4]: increased in a concentration-dependent manner; weight of the tibialis anterior muscle physically directly damaged by the stapler [5]: increased in a concentration-dependent manner; myofiber cross-sectional area in the tibialis anterior muscle [6]: increased in a concentration-dependent manner; mRNA expression level of MuRF1 [7]: decreased; expression level of the p-p70S6K protein [8]: increased
